Results reported in US20220041603A1, “SRC INHIBITOR COMPOUNDS FOR SKELETAL MUSCLE MODULATION, METHODS AND USES THEREOF” (SOCIETE DES PRODUITS NESTLE S.A., priority 2018, published 2022).

Columns and labels:
[1] = tested on: human primary muscle stem cells; assay: Assay for muscle stem cell commitment (Pax7/MyoD immunofluorescence high content screening); assay type: cell-based; details: Human Skeletal Muscle Myoblasts, donor 8 and donor 4, dose-dependent response, cultures grown 96 hours; for proportion of MyoD+ cells as percent of total cell number (myogenic commitment): MyoD+ = Pax7-/MyoD+ cells; for number of Pax7+ cells (expansion of human primary muscle stem cells): Pax7+ regardless of MyoD expression
Method: (§1) The inventors developed a high content screening to test in vitro compounds on human primary adult muscle cells. Human Skeletal Muscle Myoblasts (HSMM) were purchased from Lonza (https://bioscience.lonza.com). These cells were isolated from the upper arm or leg muscle tissue of normal donors and used after the second passage. Several donors were tested to ensure cell viability and purity before selecting the final donors, which are a person (Donor 8) and a person (Donor 4).
The primary screening assay was based on the high content detection of two important myogenic regulatory factors (Pax7 and MyoD) by immunofluorescence. Pax7 and MyoD are the major hallmarks of muscle stem cell stemness and commitment and can be used to monitor muscle stem cell progeny. In particular, Pax7 marks early amplification while MyoD is a later marker for myogenic commitment, and combinations of these markers define the different states of proliferation, differentiation and self-renewal.
Human primary myoblasts were seeded in 384 well plates at a density of 1′000 cells per well in skeletal muscle growth medium (SKM-M, AMSbio). For treatment, compounds were directly added to the myoblast cultures 16 hours after initial plating. All cultures were then grown for 96 hours. Cells were stained for Pax7 and MyoD expression using antibodies directed against Pax7 and MyoD and counterstained with Hoechst 33342 to visualize cell nuclei. […] Pax7+ cells are defined as cells that express Pax7 regardless of MyoD expression. Image acquisition was performed using the ImageXpress (Molecular Devices) platform. Custom module analysis based on Multi-Wavelength Cell Scoring of the MetaXpress software was used for quantification.

[2] = tested on: human primary muscle cells; assay: Assay for myogenesis (troponin-T myotube detection); assay type: cell-based; details: human primary myoblasts, donor 8 and donor 4; dose dependent response; compound treatment 96 hours after differentiation induction
Source text: as §1, with “passage.” for “passage. Several donors were tested to ensure cell viability and purity before selecting the final donors, which are a person (Donor 8) and a person (Donor 4).”
This secondary assay focused on the later stage of myogenesis when the muscle cells fuse together and form multinucleated myotubes. This assay was based on the detection of the mature troponin-T protein that is expressed in myotubes. In particular, two measurements were made:
Fusion factor, which is the % of nuclei that are inside the multinucleated myotubes compare to total nuclei and give a readout for muscle cell differentiation.
Myotube area, which is measured based on the Troponin T staining and give a readout on the myotube size and muscle fiber growth.
After one day, the differentiation is induced by a medium change. For treatment, compounds were directly added to the myoblast cultures for 96 hours. Myotubes were stained for TroponinT expression using antibodies directed against TroponinT and counterstained with Hoechst 33342 to visualize cell nuclei. Image acquisition was performed using the ImageXpress (Molecular Devices) platform. Custom module analysis based on Multi-Wavelength Cell Scoring of the MetaXpress software was used for quantification.

## CC(C)(C)n1nc(-c2cccc3ccccc23)c2c(N)ncnc21 [Napthyl-PP1, 1-(1,1-Dimethylethyl)-3-(1-naphthalenyl)-1H-pyrazolo[3,4-d]pyrimidin-4-amine]
[1]
  proportion of MyoD+ cells as percent of total cell number (myogenic commitment): increase
  number of Pax7+ cells (expansion of human primary muscle stem cells): increase
[2]
  myofiber growth (area covered by troponinT-positive myotubes): enhances
  myogenic differentiation (Fusion Factor, percent nuclei within troponinT-positive myotubes): enhances

## Cc1ccc(-c2nn(C(C)(C)C)c3ncnc(N)c23)cc1 [PP1, 1-(1,1-Dimethylethyl)-3-(4-methylphenyl)-1H-pyrazolo[3,4-d]pyrimidin-4-amine]
[1]
  proportion of MyoD+ cells as percent of total cell number (myogenic commitment): increase
  number of Pax7+ cells (expansion of human primary muscle stem cells): increase
[2]
  myogenic differentiation (Fusion Factor, percent nuclei within troponinT-positive myotubes): enhances

## CC(C)(C)n1nc(-c2ccc(Cl)cc2)c2c(N)ncnc21 [PP2, 3-(4-Chlorophenyl)-1-(1,1-dimethylethyl)-1H-pyrazolo[3,4-d]pyrimidin-4-amine]
[1]
  proportion of MyoD+ cells as percent of total cell number (myogenic commitment): increase
  number of Pax7+ cells (expansion of human primary muscle stem cells): increase
[2]
  myogenic differentiation (Fusion Factor, percent nuclei within troponinT-positive myotubes): enhances
